Measured values published in the supplement of paper PMC13207355.

Assays:
Conditions in all cases: exposure time: 72 h
[1] = system: E34 (patient-derived glioblastoma stem cells of proneural subtype); assay: surviving fraction (nuclei count normalised to DMSO); higher = more cells surviving (less toxic)
[2] = system: E57 (patient-derived glioblastoma stem cells of mesenchymal subtype); assay: as above
[3] = system: E31 (patient-derived glioblastoma stem cells of proneural subtype); assay: as above
[4] = system: E28 (patient-derived glioblastoma stem cells of classical subtype); assay: as above
[5] = system: E21 (patient-derived glioblastoma stem cells of mesenchymal subtype); assay: as above
[6] = system: FT3469 (normal neural stem cell line); assay: as above
[7] = system: E13 (patient-derived glioblastoma stem cells of classical subtype); assay: as above
[8] = system: E34; assay: phenotypic distance (Euclidean, principal components) from DMSO controls (arbitrary units); higher = stronger morphological change
[9] = system: E57; assay: as above
[10] = system: E31; assay: as above
[11] = system: E28; assay: as above
[12] = system: E21; assay: as above
[13] = system: FT3469; assay: as above
[14] = system: E13; assay: as above
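Wherever phenotypic distance (Euclidean, principal components) from DMSO controls is given: cell Painting imaging in 384-well plates, CellProfiler features reduced to at least 20 principal components, Euclidean distance versus same-plate DMSO vehicle wells (0.1% v/v), median over six images per well.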
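Wherever surviving fraction (nuclei count normalised to DMSO) is given: nuclei counted by high-content imaging of Hoechst-stained cells in laminin-coated 384-well plates, relative to 0.1% DMSO vehicle wells, with staurosporine as cell-death control.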

NCc1ccccc1CC(=O)N[C@@H]1C(=O)N2C(C(=O)O)=C(CSc3nnnn3CC(=O)O)CS[C@H]12 [Ceforanide]
Conditions | phenotypic distance | surviving fraction
[1], 4.1 nM | – | 1.07
[1], 12.3 nM | – | 1.01
[1], 37 nM | – | 1.2
[1], 111.1 nM | – | 0.873
[1], 333.3 nM | – | 1.1
[1], 1000 nM | – | 0.901
[1], 3000 nM | – | 0.86
[2], 4.1 nM | – | 0.871
[2], 12.3 nM | – | 0.985
[2], 37 nM | – | 0.982
[2], 111.1 nM | – | 0.995
[2], 333.3 nM | – | 1
[2], 1000 nM | – | 0.926
[2], 3000 nM | – | 0.897
[3], 4.1 nM | – | 0.969
[3], 12.3 nM | – | 0.993
[3], 37 nM | – | 0.944
[3], 111.1 nM | – | 1.06
[3], 333.3 nM | – | 0.801
[3], 1000 nM | – | 0.895
[3], 3000 nM | – | 1.03
[4], 4.1 nM | – | 1.01
[4], 12.3 nM | – | 0.94
[4], 37 nM | – | 1.19
[4], 111.1 nM | – | 0.907
[4], 333.3 nM | – | 0.952
[4], 1000 nM | – | 0.963
[4], 3000 nM | – | 0.899
[5], 4.1 nM | – | 0.96
[5], 12.3 nM | – | 1
[5], 37 nM | – | 1
[5], 111.1 nM | – | 0.945
[5], 333.3 nM | – | 0.927
[5], 1000 nM | – | 0.94
[5], 3000 nM | – | 0.913
[6], 4.1 nM | – | 0.899
[6], 12.3 nM | – | 0.944
[6], 37 nM | – | 0.806
[6], 111.1 nM | – | 1.05
[6], 333.3 nM | – | 0.931
[6], 1000 nM | – | 1.08
[6], 3000 nM | – | 0.785
[7], 4.1 nM | – | 0.857
[7], 12.3 nM | – | 0.899
[7], 37 nM | – | 0.892
[7], 111.1 nM | – | 0.955
[7], 333.3 nM | – | 0.967
[7], 1000 nM | – | 0.991
[7], 3000 nM | – | 0.821
[8], 4.1 nM | 0.618 | –
[8], 12.3 nM | 0.456 | –
[8], 37 nM | 0.886 | –
[8], 111.1 nM | 0.834 | –
[8], 333.3 nM | 0.882 | –
[8], 1000 nM | 0.522 | –
[8], 3000 nM | 0.877 | –
[9], 4.1 nM | 0.735 | –
[9], 12.3 nM | 0.47 | –
[9], 37 nM | 0.604 | –
[9], 111.1 nM | 0.425 | –
[9], 333.3 nM | 0.594 | –
[9], 1000 nM | 0.792 | –
[9], 3000 nM | 0.948 | –
[10], 4.1 nM | 0.821 | –
[10], 12.3 nM | 0.599 | –
[10], 37 nM | 0.687 | –
[10], 111.1 nM | 0.68 | –
[10], 333.3 nM | 0.855 | –
[10], 1000 nM | 0.963 | –
[10], 3000 nM | 0.779 | –
[11], 4.1 nM | 0.755 | –
[11], 12.3 nM | 0.829 | –
[11], 37 nM | 0.872 | –
[11], 111.1 nM | 0.701 | –
[11], 333.3 nM | 0.858 | –
[11], 1000 nM | 1.54 | –
[11], 3000 nM | 1.07 | –
[12], 4.1 nM | 0.452 | –
[12], 12.3 nM | 0.464 | –
[12], 37 nM | 0.533 | –
[12], 111.1 nM | 0.73 | –
[12], 333.3 nM | 0.545 | –
[12], 1000 nM | 0.643 | –
[12], 3000 nM | 0.896 | –
[13], 4.1 nM | 0.788 | –
[13], 12.3 nM | 0.666 | –
[13], 37 nM | 0.745 | –
[13], 111.1 nM | 0.803 | –
[13], 333.3 nM | 0.916 | –
[13], 1000 nM | 0.851 | –
[13], 3000 nM | 1.28 | –
[14], 4.1 nM | 0.868 | –
[14], 12.3 nM | 0.834 | –
[14], 37 nM | 0.565 | –
[14], 111.1 nM | 2.99 | –
[14], 333.3 nM | 0.49 | –
[14], 1000 nM | 0.481 | –
[14], 3000 nM | 1.06 | –

C/C=C(\C)C(=O)N[C@@H](c1ccccc1)[C@@H](O)C(=O)O[C@H]1C[C@@]2(O)[C@@H](OC(=O)c3ccccc3)[C@@H]3[C@]4(OC(C)=O)CO[C@@H]4C[C@H](O)[C@@]3(C)C(=O)[C@H](OC(C)=O)C(=C1C)C2(C)C [Cephalomannine]
Conditions | phenotypic distance | surviving fraction
[1], 4.11523 nM | – | 0.497
[1], 12.34567901 nM | – | 0.442
[1], 37.037 nM | – | 0.356
[1], 111.1111111 nM | – | 0.284
[1], 333.333 nM | – | 0.293
[1], 1000 nM | – | 0.356
[1], 3000 nM | – | 0.382
[2], 4.11523 nM | – | 0.156
[2], 12.34567901 nM | – | 0.125
[2], 37.037 nM | – | 0.0853
[2], 111.1111111 nM | – | 0.0579
[2], 333.333 nM | – | 0.0628
[2], 1000 nM | – | 0.0598
[2], 3000 nM | – | 0.0598
[3], 4.11523 nM | – | 0.23
[3], 12.34567901 nM | – | 0.132
[3], 37.037 nM | – | 0.12
[3], 111.1111111 nM | – | 0.11
[3], 333.333 nM | – | 0.0834
[3], 1000 nM | – | 0.12
[3], 3000 nM | – | 0.148
[4], 4.11523 nM | – | 0.515
[4], 12.34567901 nM | – | 0.557
[4], 37.037 nM | – | 0.304
[4], 111.1111111 nM | – | 0.357
[4], 333.333 nM | – | 0.302
[4], 1000 nM | – | 0.286
[4], 3000 nM | – | 0.249
[5], 4.11523 nM | – | 0.335
[5], 12.34567901 nM | – | 0.327
[5], 37.037 nM | – | 0.209
[5], 111.1111111 nM | – | 0.246
[5], 333.333 nM | – | 0.213
[5], 1000 nM | – | 0.214
[5], 3000 nM | – | 0.198
[6], 4.11523 nM | – | 0.62
[6], 12.34567901 nM | – | 0.646
[6], 37.037 nM | – | 0.577
[6], 111.1111111 nM | – | 0.441
[6], 333.333 nM | – | 0.378
[6], 1000 nM | – | 0.465
[6], 3000 nM | – | 0.449
[7], 4.11523 nM | – | 0.308
[7], 12.34567901 nM | – | 0.245
[7], 37.037 nM | – | 0.27
[7], 111.1111111 nM | – | 0.137
[7], 333.333 nM | – | 0.171
[7], 1000 nM | – | 0.171
[7], 3000 nM | – | 0.19
[8], 4.11523 nM | 3.55 | –
[8], 12.34567901 nM | 3.84 | –
[8], 37.037 nM | 3.81 | –
[8], 111.1111111 nM | 3.17 | –
[8], 333.333 nM | 3.79 | –
[8], 1000 nM | 3.73 | –
[8], 3000 nM | 3.93 | –
[9], 4.11523 nM | 5.45 | –
[9], 12.34567901 nM | 5.1 | –
[9], 37.037 nM | 5.59 | –
[9], 111.1111111 nM | 5.43 | –
[9], 333.333 nM | 5.14 | –
[9], 1000 nM | 5.43 | –
[9], 3000 nM | 5.27 | –
[10], 4.11523 nM | 3.6 | –
[10], 12.34567901 nM | 4.39 | –
[10], 37.037 nM | 3.82 | –
[10], 111.1111111 nM | 4.56 | –
[10], 333.333 nM | 4.66 | –
[10], 1000 nM | 3.37 | –
[10], 3000 nM | 3.61 | –
[11], 4.11523 nM | 3.22 | –
[11], 12.34567901 nM | 3.3 | –
[11], 37.037 nM | 3.65 | –
[11], 111.1111111 nM | 3.5 | –
[11], 333.333 nM | 3.82 | –
[11], 1000 nM | 3.7 | –
[11], 3000 nM | 4.32 | –
[12], 4.11523 nM | 4.99 | –
[12], 12.34567901 nM | 5.05 | –
[12], 37.037 nM | 5.62 | –
[12], 111.1111111 nM | 6.2 | –
[12], 333.333 nM | 5.44 | –
[12], 1000 nM | 6.44 | –
[12], 3000 nM | 7.14 | –
[13], 4.11523 nM | 2.71 | –
[13], 12.34567901 nM | 2.83 | –
[13], 37.037 nM | 3.01 | –
[13], 111.1111111 nM | 3.67 | –
[13], 333.333 nM | 3.37 | –
[13], 1000 nM | 3.99 | –
[13], 3000 nM | 4.09 | –
[14], 4.11523 nM | 4.23 | –
[14], 12.34567901 nM | 4.51 | –
[14], 37.037 nM | 4.54 | –
[14], 111.1111111 nM | 6.45 | –
[14], 333.333 nM | 5.33 | –
[14], 1000 nM | 5.74 | –
[14], 3000 nM | 5.58 | –
